Structures can show the parent of a compound that is named as a salt. Where two headings read alike, the source gives them in different places.
Legend:
NMDA receptor [1] = molecular target: T1, NMDA receptor (Rattus norvegicus, UniProt P35439); experiment: Patch clamp, inward currents to NMDA in cultured superior colliculus neurones; assay type: cell-based; details: NMDA 200 μM, glycine 1 μM
T1 construct: endogenous in cells
Method: Cells were mechanically dissociated in 0.05% DNAase / 0.3% ovomucoid (Sigma) following a 15 minute pre-incubation with 0.66% trypsin / 0.1% DNAase (Sigma). The dissociated cells were then centrifuged at 18G for 10 minutes, resuspended in minimum essential medium (Gibco) and plated at a density of 200,000 cells cm onto poly-L-lysine (Sigma)-precoated plastic petri dishes (Falcon). The cells were nourished with NaHCO3 /HEPES-buffered minimum essential medium supplemented with 5% foetal calf serum and 5% horse serum (Gibco) and incubated at 37° C. with 5%CO2 at 95% humidity. The medium was exchanged completely following inhibition of further glial mitosis with cytosine-β-D-arabinofuranoside (20 μM Sigma) after about 7 days in vitro. Thereafter the medium was exchanged partially twice weekly. […] Moreover, the relatively small neurones (soma 15-20 μm .phi.) are ideally suited to minimise problems of buffered diffusion for concentration clamp experiments.
Patch clamp recordings were made from these neurones with polished glass electrodes (4-6 m.OMEGA.) in the whole cell mode at room temperature (20°-22° C.) with the aid of an EPC-7 amplifier (List). Test substances were applied by switching channels of a custom made fast superfusion system with a common outflow (10-20 ms exchange times). The contents of the intracellular solution were as follows (mM): CsCl (120), TEACl (20), EGTA (10), MgCl2 (1), CaCl2 (0.2), glucose (10), ATP (2), cAMP (0.25); pH was adjusted to 7.3 with CsOH or HCl. The extracellular solutions had the following basic composition (mM): NaCl (140), KCl (3), CaCl2 (0.2), glucose (10), HEPES (10), sucrose (4.5), tetrodotoxin (TTX 3*10-4). For most experiments glycine (1 μM) was present in all solutions. Experiments to test the glycine-dependence of the tricyclic "pyrido-phtalazin diones" were performed in the continuous presence of increasing concentrations of glycine (1-10 μM).
This effect was mediated at the glycineB site as evidenced by the parallel shift in the concentration-response curves in the presence of increasing glycine concentrations. Thus the Kbs of Mrz 2/502 as assessed according to the Cheng-Prusoff relationship were similar in glycine 1, 3 and 10 μM (80, 124 and 118 nM respectively). […] Choline derivatives had similar potencies to the free acids in vitro (Table14b).

NMDA receptor [2] = molecular target: T2, NMDA receptor (Mus musculus, UniProt P35438); experiment: Maximal electroshock (MES)-induced tonic convulsions; assay type: in vivo; details: for ED50: mouse, ip, 0.25 h, read-out: MES ID50; for ED50 / MES ID50: i.p., 15 min before induction
T2 construct: from tissue; host or cells: living mice (albino Swiss males for NMDA and PTZ tests, NMR females for MES)
Method: To assess NMDA receptor antagonistic properties of the tested agents by assessing anticonvulsive effects. Additionally the role of organic acid transporters in the elimination from the brain of tested agents was assessed by using an inhibitor, Probenicid, on the duration of anticonvulsive activity.
Male albino Swiss mice (19-21 g) housed 10-15 per cage were used for the NMDA lethality test (Leander et al., 1988). For pentylenetetrazol (PTZ)-induced convulsions male albino Swiss mice (25-34 g.) housed 40 per cage (58×38×20 cm) were used while in the maximal electroshock (MES) and motor impairment tests NMR female mice (18-28 g) housed 5 per cage were employed. All animals were kept with water and food ad libittum under a 12-h light-dark cycle (light on at 6 a.m.), and at a controlled temperature (20°±0.5° C.). All experiments were performed between 10 a.m. and 5 p.m. Tested agents were injected 15 min. i.p before the induction of convulsions if not stated otherwise (see below). Mrz 2/502 was dissolved in saline added with NaOH. Most other agents were dissolved in the following solution: 0.606 g Tris; 5.0 g. glucose; 0.5 g. Tween 80; and 95 ml water. The choline and tetramethylammonium salts were dissolved in distilled water.
MES (100 Hz, 0.5 sec shock duration, 50 mA shock intensity, 0.9 ms impulse duration, Ugo Basile) was applied through corneal electrodes. The presence of tonic convulsions was scored (tonic extension of hind paws with minimum angle to the body of 90°). In an additional experiment mice were injected with Probenicid (200 mg/kg) 30 min before administration of the tested agents to assess the role of organic acid transport in elimination (duration of action). The aim was to obtain ED50 s for all parameters scored using the Litchfield Wilcoxon (1949) test for quantal dose responses.

[3] = molecular target: T3, glycineB site of the NMDA receptor (rat cortical membranes) (Rattus norvegicus, UniProt P35439); experiment: [3H]5,7-DCKA binding assay; details: 10 nM [3H]5,7-DCKA
T3 construct: The cortex was dissected and homogenised in 20 volumes of ice-cold 0.32M sucrose; from tissue; host or cells: brain cortex membranes of male Sprague-Dawley rats
Method: Tissue preparation was performed according to Foster and Wong (1987). Male Sprague-Dawley rats (200-250g) were decapitated and their brains were removed rapidly. The cortex was dissected and homogenised in 20 volumes of ice-cold 0.32M sucrose using a glass-Teflon homogenizer. The homogenate was centrifuged at 1000×g for 10 min. The pellet was discarded and the supernatant centrifuged at 20,000×g for 20 min. The resulting pellet was resuspended in 20 volumes of distilled water and centrifuged for 20 min at 8000×g. Then the supernatant and the buffy coat were centrifuged three times (48,000× g for 20 min) in the presence of 5 mM Tris-HCl, pH 7.4. All centrifugation steps were carried out at 4° C. After resuspension in 5 volumes of 5 mM Tris-HCl, pH 7.4 the membrane suspension was frozen rapidly at -80° C. until the day of assay. On the day of assay the membranes were thawed and washed four times by resuspension in 5 mM Tris-HCl, pH 7.4 and centrifugation at 48,000× g for 20 min. The final pellet was suspended in assay buffer.
The amount of protein in the final membrane preparation was determined according to the method of Lowry (1951) with some modifications (Hartfree, 1972). 50 μl of Protein samples (in triplicates) were diluted to 1 ml with distilled water and treated with 0.9 ml of a solution containing 2 g potassium sodium tartrate and 10 g Na2 CO3 in 500 ml 1N NaOH and 500ml water. Blank and standard (with bovine serum albumin) were set up in the same way. The tubes were placed in a water bath at 50° C. for 10 min. and cooled at room temperature. 100 μl of a solution containing 2 g potassium sodium tartrate and 1 g CuSO4 x 5 H2 O in 90 ml water and 10 ml 1N NaOH were added. The samples were left at room temperature for at least 10 min., then 3 ml of Folin-Ciocalteu reagent (1 ml of reagent diluted with 15 ml water) was added rapidly during mixing. The tubes were again heated at 50° C. for 10 min. and cooled to room temperature. Absorbencies were then read in 1 cm cuvets at 650 nm. The final protein concentration used for our studies was between 100 and 250 μg/ml.
Incubation in both binding assays was terminated using a Millipore filter system. The samples, all in triplicate, were rinsed three times with 2.5 ml ice cold assay buffer over glass fibre filters obtained from Schleicher & Schuell under a constant vacuum. Following separation and rinse the filters were placed into scintillation liquid (5 ml; Ultima Gold) and radioactivity retained on the filters was determined by using conventional liquid scintillation counter (Hewlett Packard, Liquid Scintillation Analyser). `Total binding` was the absolute amount of radioligand bound in the absence of any additives whereas `non-specific` binding was determined in the presence of a high concentration of competitor.
[^3 H]5,7-DCKA binding assay
Experiments were performed according to the methods modified from previous groups (Canton et al., 1991; Yoneda et al., 1993). Membranes were suspended and incubated in 10 mM Tris-HCl, pH 7.4. Incubation time was 45 min at 4° C. Non-specific binding of [^3 H]5,7-DCKA was defined by the addition of unlabeled glycine at 0.1 mM. The stop-solution contained 10 mM Tris-HCl and 10 mM magnesium sulphate, pH 7.4. Filtration was performed as rapidly as possible. Displacement experiments were performed with a fixed [^3 H]5,7-DCKA concentration of 10 nM. Test compounds were diluted in water or DMSO and added in at least 5 different concentrations.

NMDA receptor [4] = molecular target: T1, NMDA receptor; experiment: Microelectrophoretic application of NMDA to spinal neurones in vivo; details: responses of single rat spinal neurones; for ED50: rat, iv, read-out: Microelectrophoretic NMDA ID50; for Microelectrophoretic NMDA ID50: i.v.
Method: (§1) The ability of these glycineB antagonists to act as NMDA receptor antagonists in vivo was assessed using i.v. administration against responses of single neurones in the rat spinal cord to microelectrophoretic application of AMPA and NMDA.

AMPA = experiment: Microelectrophoretic application of AMPA to spinal neurones in vivo; details: i.v., responses of single rat spinal neurones
Method: as §1

[5] = peak currents, read-out: Peak NMDA IC50
[6] = plateau (steady-state) currents, read-out: Plateau NMDA IC50

Compound	IC50 (NMDA receptor [1]; [5]) [nM]	IC50 (NMDA receptor [1]; [6]) [nM]	IC50 [3] [nM]	ED50 (NMDA receptor [4]) [mg/kg]	Microelectrophoretic AMPA ID50 (AMPA) [mg/kg]	also measured
O=c1[nH]nc(O)c2c1cc1cc(Br)c(Cl)cc1[n+]2[O-] [Mrz 2/551, 7-chloro-8-bromo-4-hydroxy-1-oxo-1,2-dihydropyridazino-[4,5-b]-quinoline 5-oxide]	2400	600	–	–	–	–
COc1ccc2nc3c(=O)[nH][nH]c(=O)c3cc2c1 [Mrz 2/554]	170000	36200	–	–	–	ED50 (NMDA receptor [2]): > 100 mg/kg
O=c1[nH]nc(O)c2c1cc1cc(Cl)c(Br)cc1[n+]2[O-] [Mrz 2/568, 7-bromo-8-chloro-4-hydroxy-1-oxo-1,2-dihydropyridazino-[4,5-b]-quinoline 5-oxide]	10000	1500	–	–	–	–
O=c1[nH][nH]c(=O)c2nc3ccc(Cl)cc3cc12 [Mrz 2/569]	2000	500	970	> 16	> 16.0	MES ID50 (NMDA receptor [2]; listed as 569, 15 min): > 50 mg/kg
O=c1[nH]nc(O)c2c1cc1cc(F)ccc1[n+]2[O-] [Mrz 2/571, 8-fluoro-4-hydroxy-1-oxo-1,2-dihydropyridazino[4,5-b]-quinoline 5-oxide choline salt]	4900	1000	320	–	–	Microelectrophoretic NMDA ID50 (NMDA receptor [4]; listed as 571): 4.7 mg/kg; MES ID50 (NMDA receptor [2]; listed as 571, 15 min): 15.5 mg/kg; Microelectrophoretic AMPA ID50 (AMPA; listed as 571): 9.2 mg/kg
O=c1[nH][nH]c(=O)c2nc3ccc(F)cc3cc12 [Mrz 2/572]	12400	3500	1140	> 16	> 16.0	MES ID50 (NMDA receptor [2]; listed as 572, 15 min): > 100 mg/kg
O=c1[nH][nH]c(=O)c2nc3cc(Cl)c(Cl)cc3cc12 [Mrz 2/574]	–	–	–	–	–	MES ID50 (NMDA receptor [2]; listed as 574, 15 min): > 100 mg/kg
COc1ccc2cc3c(=O)[nH][nH]c(=O)c3nc2c1 [Mrz 2/575]	94000	14500	–	–	–	ED50 (NMDA receptor [2]): > 100 mg/kg
O=c1[nH]nc(O)c2c1cc1cc(Cl)ccc1[n+]2[O-] [Mrz 2/576, 8-chloro-4-hydroxy-1-oxo-1,2-dihydropyridazino[4,5-b]-quinoline 5-oxide choline salt]	1100	500	450	–	–	Microelectrophoretic NMDA ID50 (NMDA receptor [4]; listed as 576): 2.8 mg/kg; MES ID50 (NMDA receptor [2]; listed as 576, 15 min): 7.7 mg/kg; Microelectrophoretic AMPA ID50 (AMPA; listed as 576): > 16.0 mg/kg
O=c1[nH]nc(O)c2c1cc1ccccc1[n+]2[O-] [Mrz 2/577, 4-hydroxy-1-oxo-1,2-dihydro-pyridazino[4,5-b]-quinoline 5-oxide choline salt]	–	–	–	34	> 32.0	MES ID50 (NMDA receptor [2]; listed as 577, 15 min): 23.7 mg/kg
COc1ccc2c(c1)cc1c(=O)[nH]nc(O)c1[n+]2[O-] [Mrz 2/578]	101000	7700	–	–	–	ED50 (NMDA receptor [2]): > 100 mg/kg
O=c1[nH][nH]c(=O)c2nc3ccc(Br)cc3cc12 [Mrz 2/586]	2200	–	–	> 16	> 16.0	MES ID50 (NMDA receptor [2]; listed as 586, 15 min): > 50 mg/kg
CCCN(CCC)S(=O)(=O)c1ccc(C(=O)O)cc1 [Probenecid, reference compound]	–	–	–	–	–	independent effect on MES-induced convulsions (NMDA receptor [2]; 200 mg/kg): no independent effect

From patent US5776935A, “Pyrido-phtalazin diones and their use against neurological disorders associated with excitotoxicity and malfunctioning of glutamatergic neurotransmission” (Merz & Co. GmbH & Co., priority 1996, dated 1998)
